Measurements: patent publication US20260008775A1, “AZOLE MODULATORS OF CHOLESTEROL BIOSYNTHESIS AND THEIR USE FOR PROMOTING REMYELINATION” (GENENTECH, INC., priority 2022, published 2026)

Columns and labels:
[1] = molecular target: human emopamil binding protein and human 7-dehydrocholesterol reductase (hEBP-DHCR7) (Homo sapiens (Human), UniProt Q15125); experiment: hEBP-DHCR7 radioligand binding assay (filter binding, membranes of co-expressing HEK293 cells); conditions: competition with [3H] radioligand, 8 doses 0.06 to 5000 nM, Ki calculated from IC50
In short: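 Membranes from HEK293 cells transiently co-expressing hEBP and DHCR7 (10 μg/well) were incubated for 3 h at 22 °C with tritiated spiro-sulfone radioligand (added at 25 nM) and compound at 1 μM or 0.06–5000 nM. Filtration and scintillation counting followed. Inhibition was normalised to 5 μM unlabelled ligand and DMSO, and Ki was derived as IC50/(1+[L]/Kd).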

[2] = system: zymostenol accumulation (EBP) in EpiSC-derived OPCs; experiment: GC/MS-based sterol profiling, zymostenol accumulation in EpiSC-derived OPCs; type: cell-based, mouse; conditions: Mus musculus, 24 h, EpiSC-derived OPCs, 24 hr, 8 doses from 0.15 nM to 333 nM; read-out: Mouse Zymostenol GCMS EC50
In short: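 Mouse epiblast stem cell-derived OPCs plated at 100,000 cells/well in growth-factor-free N2B27 and treated 24 h. Sterols extracted by modified Folch wash, silylated with BSTFA, and quantified by electron-impact GC/MS against cholesterol-d7 (zymostenol ion 458). Zymostenol normalised to 24 h 100 nM positive-control reference.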

[3] = system: EpiSC-derived OPCs; experiment: In vitro phenotypic screening of OPCs, MBP high-content imaging (percentage of oligodendrocytes); type: cell-based, mouse; conditions: Mus musculus, 72 h, 3 days, MBP stain, dose-response 0.5 nM to 1000 nM; read-out: OPC EC50
Procedure: To assess effects of treatments on OPCs, all treatments were assayed in two or more independent platings of epiblast stem cell-derived OPCs (EpiSC). EpiSC-derived OPCs were obtained using in vitro differentiation protocols and culture conditions described previously (Najm et al, 2011, Nature Methods). OPCs were expanded and frozen down in aliquots. OPCs were thawed into growth conditions for at least one passage before use in further assays.
EpiSC-derived OPCs were grown and expanded in poly-L-ornithine (PO) and laminin-coated flasks in N2B27 media (DMEM/F12 (Gibco), N2-MAX (R&D Systems), B-27 (ThermoFisher), and GlutaMax (Gibco)) supplemented with FGF2 (10 μg/mL, R&D systems, 233-FB-025) and PDGF-AA (10 μg/mL, R&D systems, 233-AA-050) before harvesting for experiments. The cells were seeded onto poly-L-ornithine or poly-D-lysine coated CellCarrier Ultra plates (PerkinElmer) coated with laminin (Sigma, L2020) at a density of 150,000/cm^2 in N2B27 media without growth factors. For dose-response testing, a 1000× compound stock in dimethyl sulphoxide (DMSO) was added to assay plates, resulting in 8-point dose curves with final concentrations between 1000 nM and 0.5 nM. Positive controls and DMSO vehicle controls were included in each assay plate. Cells were incubated under standard conditions (37° C., 5% CO2) for 3 days and fixed with 4% paraformaldehyde (PFA) in phosphate buffered saline (PBS) for 20 min. Fixed plates were washed with PBS, permeabilized with 0.1% Triton X-100, and blocked with 10% donkey serum (v/v) in PBS for 40 min. Then, cells were labelled with MBP antibodies (Abcam, ab7349; 1:200) for 2 h at room temperature, washed with PBS, and stained with Alexa Fluor conjugated secondary antibodies (1:500) for 45 min. Nuclei were visualized by DAPI staining (Sigma; […]), followed by further PBS washes.
Cells and cell culture plates were imaged on the Operetta High Content Imaging and Analysis system (PerkinElmer). Analysis (PerkinElmer Harmony and Columbus software) began by identifying intact nuclei stained by DAPI. The peri-nuclear region of each cell was then cross-referenced with the mature myelin protein (MBP) stain to identify oligodendrocyte nuclei, and from this the percentage of oligodendrocytes was calculated. EC50 values were calculated using The Levenberg-Marquardt algorithm to fit a Hill equation to dose-response data (0.5 nM to 1000 nM).

Sequence of human emopamil binding protein and human 7-dehydrocholesterol reductase (hEBP-DHCR7) (Q15125 whole entry): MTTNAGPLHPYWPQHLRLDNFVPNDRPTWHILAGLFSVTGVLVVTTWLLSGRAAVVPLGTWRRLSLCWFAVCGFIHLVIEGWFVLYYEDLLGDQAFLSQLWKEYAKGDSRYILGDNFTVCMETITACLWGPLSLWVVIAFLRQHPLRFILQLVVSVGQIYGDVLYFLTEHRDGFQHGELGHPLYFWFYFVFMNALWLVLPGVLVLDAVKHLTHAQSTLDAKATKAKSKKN

CC(C)n1nc(-c2cncc(C(F)(F)F)c2)cc1[C@H]1[C@@H]2C[C@H](N3CCOC[C@@H]3C)C[C@@H]21 (single isomer, unassigned) [45*]
Ki [1]: 53 nM
EC50 [2]: 11 nM
EC50 [3]: 48 nM

CC(C)n1nc(-c2cncc(C(F)(F)F)c2)cc1[C@H]1[C@@H]2C[C@H](N3CCOC[C@H]3C)C[C@@H]21 (single isomer, unassigned) [46*]
Ki [1]: 34.8 nM
EC50 [2]: 1.42 nM
EC50 [3]: 0.907 nM

CC(C)n1nc(-c2cncc(C(F)(F)F)c2)cc1[C@H]1CC[C@H](N2CCOCC2)C1 (single isomer, unassigned) [58*]
Ki [1]: 26.2 nM
EC50 [2]: 25.1 nM
EC50 [3]: 138 nM

CC(C)n1nc(-c2cncc(C(F)(F)F)c2)cc1[C@H]1CC[C@@H](N2CCOCC2)C1 (single isomer, unassigned) [60*]
Ki [1]: 19.2 nM
EC50 [2]: 5.52 nM
EC50 [3]: 36.2 nM

CC(C)n1nc(-c2cncc(C(F)(F)F)c2)cc1[C@@H]1CC[C@H](N2CCOCC2)C1 (single isomer, unassigned) [61*]
Ki [1]: 69.1 nM
EC50 [2]: 21.9 nM
EC50 [3]: 102 nM

CC(C)n1nc(-c2cncc(C(F)(F)F)c2)cc1[C@@H]1CC[C@H](N2CCCOCC2)C1 (single isomer, unassigned) [62*]
Ki [1]: 13.1 nM
EC50 [2]: 1.73 nM
EC50 [3]: 18.3 nM

CC(C)n1nc(-c2cncc(C(F)(F)F)c2)cc1[C@H]1CC[C@H](N2CCCOCC2)C1 (single isomer, unassigned) [63*]
Ki [1]: 14.4 nM
EC50 [2]: 3.49 nM
EC50 [3]: 21.8 nM

CC(C)n1nc(-c2cncc(C(F)(F)F)c2)cc1[C@@H]1CC[C@@H](N2CCCOCC2)C1 (single isomer, unassigned) [65*]
Ki [1]: 28.2 nM
EC50 [2]: 16.2 nM
EC50 [3]: 103 nM

CC(C)n1nc(-c2cccc(C(F)(F)F)c2)nc1[C@H]1[C@@H]2C[C@H](N3CCOC[C@H]3C)C[C@@H]21 (single isomer, unassigned) [70*]
Ki [1]: 8.76 nM
EC50 [2]: 6.43 nM
EC50 [3]: 0.65 nM

CC(C)n1nc(-c2cccc(C(F)(F)F)c2)nc1[C@H]1[C@@H]2C[C@@H](N3CCOC[C@H]3C)C[C@@H]21 (single isomer, unassigned) [71*]
Ki [1]: 29 nM
EC50 [2]: 205 nM
EC50 [3]: 749 nM

CC(C)n1nc(-c2ccc(C(F)(F)F)nc2)cc1[C@@H]1CC[C@H](N2CCN(CCO)CC2)C1 (single isomer, unassigned) [87*]
Ki [1]: 26.2 nM
EC50 [2]: 16.4 nM
EC50 [3]: 48.9 nM

COCCN1CCN([C@H]2CC[C@@H](c3cc(-c4ccc(C(F)(F)F)nc4)nn3C(C)C)C2)CC1 (single isomer, unassigned) [91*]
Ki [1]: 12.8 nM
EC50 [2]: 11.3 nM
EC50 [3]: 67.6 nM

COCCN1CCN([C@@H]2CC[C@H](c3cc(-c4ccc(C(F)(F)F)nc4)nn3C(C)C)C2)CC1 (single isomer, unassigned) [93*]
Ki [1]: 19.7 nM
EC50 [2]: 22.5 nM
EC50 [3]: 125 nM

CC[C@@H]1CN([C@@H]2CC[C@H](c3nc(-c4cnc(C(F)(F)F)nc4)nn3C(C)C)C2)CCO1 (single isomer, unassigned) [Compound 109*]
Ki [1]: 164 nM
EC50 [2]: 44 nM
EC50 [3]: 285 nM

CC[C@H]1CN([C@@H]2CC[C@H](c3nc(-c4cnc(C(F)(F)F)nc4)nn3C(C)C)C2)CCO1 (single isomer, unassigned) [Compound 110*]
Ki [1]: 14.8 nM
EC50 [2]: 2.48 nM
EC50 [3]: 13.9 nM

CC(C)n1nc(-c2ccc(C(F)(F)F)c(F)c2)nc1[C@H]1CC[C@@H](N2CCOCC2)C1 (single isomer, unassigned) [Compound 111*]
Ki [1]: 45 nM
EC50 [2]: 1.64 nM
EC50 [3]: 6.15 nM

CC(C)n1nc(-c2ccc(C(F)(F)F)c(F)c2)nc1[C@H]1CC[C@H](N2CCOCC2)C1 (single isomer, unassigned) [Compound 112*]
Ki [1]: 90.8 nM
EC50 [2]: 23.8 nM
EC50 [3]: 196 nM

CC(C)n1nc(-c2ccc(C(F)(F)F)c(F)c2)nc1[C@@H]1CC[C@H](N2CCOCC2)C1 (single isomer, unassigned) [Compound 113*]
Ki [1]: 9.73 nM
EC50 [2]: 1.85 nM
EC50 [3]: 4.81 nM
